Measurements as given in patent US8883754B2, “Method for inhibiting angiogenesis” (Ewha University—Industry Collaboration Foundation, priority 2009, dated 2014).
Where two headings read alike, the source gives them in different places.

Legend:
VEGF-VEGFR-2 signaling = conditions: for VEGFR-2 activation in response to VEGF in Prx II knockdown cells: HAECs with Prx II knockdown
From the text: Sequences of the four siRNA duplexes for human Prx II were 5′-[…]-3′ (#1, SEQ ID NO. 1), 5′-[…]-3′ (#2, SEQ ID NO. 2), 5′-[…]-3′ (#3, SEQ ID NO. 3) and 5′-[…]-3′ (#4, SEQ ID NO. 4). The Prx II siRNA duplex #1 was mainly used for the study. Sequences of the four siRNA duplexes for human Prx I were 5′-[…]-3′ (#1, SEQ ID NO. 5), 5′-[…]-3′ (#2, SEQ ID NO. 6), 5′-[…]-3′ (#3, SEQ ID NO. 7) and 5′-[…]-3′ (#4, SEQ ID NO. 8); those for human GPxl, 5′-[…]-3′ (#1, SEQ ID NO. 9), 5′-[…]-3′ (#2, SEQ ID NO. 10), 5′-[…]-3′ (#3, SEQ ID NO. 11) and 5′-[…]-3′ (#4, SEQ ID NO. 12). A Prx III-specific siRNA was previously described in Chang, T. S. et al., (J Biol Chem 2004 279 (40), 41975-41984). The firefly luciferase siRNA were purchased or synthesized from Dharmacon. SiRNA duplexes for human VEGFR-1 (Cat No. sc-29319), VEGFR-2 (Cat No. sc-29318), and Prx IV (Cat. No. sc-40835) was purchased from Santa Cruz Biotechnology. The sequence of siRNA specific to human NOX4 was 5′-[…]-3′ (SEQ ID NO. 13). Human caveolin-1 siRNA, 5′-[…]-3′ (SEQ ID NO. 14) was purchased from Qiagen. Unless otherwise stated, the endothelial cells (ECs) were transfected with the siRNA duplexes for 24 hrs using lipofectamine RNAi MAXTM (Invitrogen). Then, the cells were serum-starved for an additional 18 hrs in media containing 0.5% fetal bovine serum before VEGF stimulation.
(§1) For immunoblotting, cell lysates or the immunoprecipitates were mixed with 5× Laemmli sample buffer and boiled for 5 minutes. The samples were separated on a SDS denaturing gel and then electrophoretically transferred onto nitrocellulose membranes, which were subsequently subjected to immunoblotting. In order to block non-specific binding, the membrane was reacted with TBS (Tris-buffered saline; TBST) containing 0.5% Tween-20 and 5% nonfat milk at room temperature for 1 hour. The above described blots were reacted with each primary antibody in TBST containing 5% nonfat milk or BSA at 4° C. for overnight. After washing with TBST, the blots were reacted with horseradish peroxidase-conjugated goat anti-mouse immunoglobulin (IgG; 1:5000 dilution) or goat anti-rabbit IgG (1:3000 dilution) at room temperature for 45 minutes. Protein bands were detected using an Amersham ECLTM detection system (GE healthcare). When necessary, the membranes were stripped by shaking them for 60 minutes at 37° C. in 67 mM Tris (pH 6.7), 2% SDS, 100 mM 2-mercaptoethanol and reprobed. with the appropriate pan antibody.

[1] = tested on: intracellular ROS (H2O2) level in HAECs; assay: Detection and measurement of reactive oxygen species (CM-H2DCFDA, DCF fluorescence); assay type: cell-based, human; conditions: for level of ROS/H2O2 elevated by the Prx II knockdown: HAECs with Prx II knockdown
Description: HAECs were rinsed with Endothelial Basal Medium without phenol red (EBM, Lonza) and immediately incubated with 5 μM 5,6-chloromethyl-2′,7′-dichlorodihydrofluorescein diacetate (CM-H2DCFDA) (Molecular Probe) at 37° C. for 5 minutes. After briefly washing the cell with EBM, the fluorescence images were taken by fluorescence microscope (Axiovert 200 Basic standard, Zeiss, Germany). The relative DCF fluorescence was calculated by averaging the levels of fluorescence from 50-80 cells after subtracting the background fluorescence.

VEGFR-2 RTK = molecular target: T1, VEGFR-2 RTK (Homo sapiens, UniProt P35968); assay: VEGFR-2 in vitro kinase assay on immunoprecipitates; assay type: cell-based
T1 construct: The VEGFR-2 was immunoprecipitated from Prx II siRNA-transfected or H2O2 (100 μM)-pretreated HAECs; endogenous in cells; host or cells: HAECs (human aortic endothelial cells)
Description: At the appropriate time, the culture media were aspirated and cells were lysed in extraction buffer (TEB) containing 20 mM Hepes (pH 7.0), 1% Triton X-100, 150 mM NaCl, 10% glycerol, 1 mM EDTA, 2 mM EGTA, 1 mM DTT, 5 mM Na3VO4, 5 mM NaF, 1 mM AEBSF, aprotinin (5 μg/mL), and leupeptin (5 μg/mL). After brief centrifugation, the protein content of samples was quantified using the Bradford reagent (Bio-Rad). For immunoprecipitation, the resulting supernatants (120 μg proteins) were pre-cleaned with 10 μL of protein-A/G Sepharose 4 Fast Flow beads (Amersham Biosciences) for 1 hr, incubated overnight with 2 μg of the indicated antibodies, and further incubated at 4° C. for 3 hrs with 20 μL of protein-A/G Sepharose beads. Immunocomplexes were washed three times with 1 mL of TEB and then subjected to either in vitro kinase assay or immunoblotting.
The in vitro kinase assay was done as previously described in Choi, M. H. et al., (Nature 2005 435 (7040), 347-353). Briefly, the immunocomplexes precipitated with rabbit anti-flk-1(sc-504) antibody were incubated with 30 μL of kinase buffer (20 mM HEPES pH 7.5, 20 mM MgCl2, 20 mM β-glycerophosphate, and 200 μM Na3VO4) containing […] of γ-^32[P]-ATP and 0.5 μg GST-PLCγ1 at 30° C. for 10 minutes. The reaction was stopped by the addition of a SDS sample buffer. The samples were then boiled and separated on SDS denaturing gel. […]

2-cys Prxs = conditions: HAECs
Description: as §1

HAECs = assay: VEGF-induced tube formation on Matrigel; assay type: cell-based, human; conditions: HAECs expressing mVEGFR-2 WT or C1206S; 1 μM pretreated for 1 hr before VEGF
Description: For tube formation, the HAECs (50,000 cells/well) were placed on 12-well culture dishes coated with growth factor-reduced Matrigel matrix (BD Bioscience, cat #354230). Cells were cultured for 18 hrs in the EBM-2 media containing 0.5% serum medium in the presence or absence of VEGF-A (25 ng/mL). Thereafter, the cell images were taken from five random visual fields per sample and the total length of the tubes were quantitatively analyzed using an Image-Pro Plus version 6.2 (Media Cybernetics).

T1 sequence (P35968 20-1356): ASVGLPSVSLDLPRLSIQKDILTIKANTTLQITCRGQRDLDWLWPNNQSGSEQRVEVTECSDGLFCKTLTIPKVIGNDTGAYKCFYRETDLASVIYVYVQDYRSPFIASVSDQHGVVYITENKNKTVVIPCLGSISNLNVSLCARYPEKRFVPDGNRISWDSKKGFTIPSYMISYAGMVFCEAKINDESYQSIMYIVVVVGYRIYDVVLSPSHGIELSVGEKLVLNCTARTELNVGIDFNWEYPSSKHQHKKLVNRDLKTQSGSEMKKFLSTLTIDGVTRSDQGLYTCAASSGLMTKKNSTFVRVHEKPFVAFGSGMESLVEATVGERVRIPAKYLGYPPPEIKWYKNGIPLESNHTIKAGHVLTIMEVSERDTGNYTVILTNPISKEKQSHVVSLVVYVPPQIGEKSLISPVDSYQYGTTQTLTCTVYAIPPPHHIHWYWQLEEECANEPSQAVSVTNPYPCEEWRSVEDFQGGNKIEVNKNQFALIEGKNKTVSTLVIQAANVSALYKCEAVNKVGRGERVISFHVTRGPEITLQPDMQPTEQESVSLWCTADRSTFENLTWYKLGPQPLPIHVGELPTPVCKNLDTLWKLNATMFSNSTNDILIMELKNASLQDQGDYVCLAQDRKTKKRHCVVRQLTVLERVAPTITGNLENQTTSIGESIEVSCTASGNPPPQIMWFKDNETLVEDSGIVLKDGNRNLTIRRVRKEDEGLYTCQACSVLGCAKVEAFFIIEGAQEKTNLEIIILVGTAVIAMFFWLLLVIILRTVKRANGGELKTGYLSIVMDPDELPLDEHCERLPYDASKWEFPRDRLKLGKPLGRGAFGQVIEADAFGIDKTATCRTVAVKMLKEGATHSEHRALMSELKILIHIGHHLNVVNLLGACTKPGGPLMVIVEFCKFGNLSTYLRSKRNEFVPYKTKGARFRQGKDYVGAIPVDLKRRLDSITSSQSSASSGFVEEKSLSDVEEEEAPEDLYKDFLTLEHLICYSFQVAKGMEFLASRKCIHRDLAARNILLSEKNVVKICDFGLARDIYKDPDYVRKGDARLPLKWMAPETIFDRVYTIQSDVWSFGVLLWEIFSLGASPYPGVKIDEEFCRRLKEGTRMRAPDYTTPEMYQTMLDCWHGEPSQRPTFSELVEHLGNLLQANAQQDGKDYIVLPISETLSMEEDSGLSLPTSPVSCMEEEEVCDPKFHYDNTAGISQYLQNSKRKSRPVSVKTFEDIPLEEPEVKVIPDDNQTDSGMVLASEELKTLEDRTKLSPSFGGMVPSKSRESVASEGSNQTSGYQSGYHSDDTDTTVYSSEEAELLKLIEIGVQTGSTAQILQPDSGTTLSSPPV

## 5′-GCAUCAACUUGCAGAAAGAUU-3′ [caveolin-1 siRNA]
VEGF-VEGFR-2 signaling
  VEGFR-2 activation in response to VEGF in Prx II knockdown cells: no longer affected by the Prx II knockdown

## 5′-GUCAACAUCCAGCUGUACC-3′ [NOX4 siRNA]
[1]
  level of ROS/H2O2 elevated by the Prx II knockdown: background level
VEGF-VEGFR-2 signaling
  VEGFR-2 activation in response to VEGF in Prx II knockdown cells: completely rescued

## O[C@H](CS)[C@H](O)CS (racemic) [DTT, dithiothreitol]
VEGFR-2 RTK; VEGFR-2 immunoprecipitated from HAECs, incubated 10 minutes
  RTK activation abolished by Prx II knockdown or H2O2 treatment: fully restored

## OO [H2O2, hydrogen peroxide]
VEGFR-2 RTK; HAECs pretreated at various concentrations
  VEGF-dependent induction of VEGFR-2 RTK activation after pretreatment: suppressed VEGF-dependent induction of VEGFR-2 RTK activation in a dose-dependent manner
2-cys Prxs; micromolar concentrations up to 100 μM, 10 minutes
  hyperoxidation of 2-cys Prxs: did not induce hyperoxidation
2-cys Prxs; millimolar concentration (1 mM)
  hyperoxidation of 2-cys Prxs: only slightly induced the hyperoxidation of Prx I and Prx III, but not Prx II

## Cc1cc(C)c(/C=C2\C(=O)Nc3ccccc32)[nH]1 [SU5416]
HAECs
  tube formation by VEGFR-2 WT and C1206S mutant: completely blocked

## VEGF
[1]; control HAECs
  increase of ROS on VEGF treatment: two-fold

## methyl-β-cyclodextrin [MβCD]
VEGF-VEGFR-2 signaling
  VEGFR-2 activation in response to VEGF in Prx II knockdown cells: restored VEGFR-2 activation

B1: catalase: polyethylene glycol (PEG)-conjugated catalase, an enzyme that reduces H2O2 to H2O (protein, UniProt P00432 2-527, looked up)
Catalase: ADNRDPASDQMKHWKEQRAAQKPDVLTTGGGNPVGDKLNSLTVGPRGPLLVQDVVFTDEMAHFDRERIPERVVHAKGAGAFGYFEVTHDITRYSKAKVFEHIGKRTPIAVRFSTVAGESGSADTVRDPRGFAVKFYTEDGNWDLVGNNTPIFFIRDALLFPSFIHSQKRNPQTHLKDPDMVWDFWSLRPESLHQVSFLFSDRGIPDGHRHMNGYGSHTFKLVNANGEAVYCKFHYKTDQGIKNLSVEDAARLAHEDPDYGLRDLFNAIATGNYPSWTLYIQVMTFSEAEIFPFNPFDLTKVWPHGDYPLIPVGKLVLNRNPVNYFAEVEQLAFDPSNMPPGIEPSPDKMLQGRLFAYPDTHRHRLGPNYLQIPVNCPYRARVANYQRDGPMCMMDNQGGAPNYYPNSFSAPEHQPSALEHRTHFSGDVQRFNSANDDNVTQVRTFYLKVLNEEQRKRLCENIAGHLKDAQLFIQKKAVKNFSDVHPEYGSRIQALLDKYNEEKPKNAVHTYVQHGSHLSAREKANL
modifications: PEG
notes: polyethylene glycol (PEG)-conjugated catalase, an enzyme that reduces H2O2 to H2O
[1]
  level of ROS/H2O2 elevated by the Prx II knockdown: background level
VEGF-VEGFR-2 signaling; HAECs pretreated with PEG-catalase, increasing doses, 18 hours
  VEGF-dependent tyrosine phosphorylation: gradually decreased
